Two compounds from patent EP0199888B1, “Control of heme and iron concentrations in body tissues” (THE ROCKEFELLER UNIVERSITY, priority 1985, dated 1986) can be followed below.

For data set [1], the system named is bile duct cannulated rats. Briefly: Excretion of heme and bilirubin in bile after infusion of heat-damaged erythrocytes. It is filed as in vivo.
For data set [2], the system named is bile duct cannulated rats. Briefly: Output of biliary iron by graphite furnace atomic absorption analysis. It is filed as in vivo. Particulars: after administration of Sn-PP; representative study, typical of all animals studied.
For data set [3], the system named is bile duct cannulated rats. Briefly: Excretion of heme and bilirubin in bile after infusion of exogenous heme.

Take `C=Cc1c2[n-]c(c1C)/C=c1\[n-]/c(c(C)c1C=C)=C\c1[n-]c(c(CCC(=O)O)c1C)C=c1[n-]/c(c(C)c1CCC(=O)O)=C\2.[Sn+4]` [Sn-PP, tin protoporphyrin-IX]: the biliary heme excretion entry in data set [1] (8 rats, heat-damaged erythrocytes i.v. bolus (equivalent to 8.5 umol heme/kg b.w.) plus Sn-PP 10 umol/kg b.w. i.v., pyridine hemochromogen method) was “prompt and marked increase”; in data set [3] (5 rats, heme 6.1 µmol/kg b.w. i.v. bolus plus Sn-PP 10 µmol/kg b.w. i.v. at the same time), “prompt and marked increase”. Besides, in data set [1] (heat-damaged erythrocytes plus Sn-PP 10 umol/kg b.w. i.v., average, similar in the control group), the “combined amounts of heme plus bilirubin in bile” value is on record as “about 50 % of the dose of heme administered”. The “increase in biliary bilirubin output” value in data set [1] (heat-damaged erythrocytes plus Sn-PP 10 umol/kg b.w. i.v., in all but one Sn-PP treated animal) is reported as “greatly diminished”. Also, in data set [2], the “output of biliary iron” value was “incresed markedly”. In addition, the “amounts of heme excreted in bile relative to control animals treated with heme alone” value in data set [3] (heme 6.1 µmol/kg b.w. plus Sn-PP 10 µmol/kg b.w. i.v.) is 3-4 fold. In addition, in data set [3] (heme 6.1 µmol/kg b.w. plus Sn-PP 10 µmol/kg b.w. i.v., all animals), the “increase in biliary bilirubin resulting from the infusion of heme” value is “diminished”. In data set [3] (heme 6.1 µmol/kg b.w. plus Sn-PP 10 µmol/kg b.w. i.v., mean), the “amounts of heme excreted in bile” value is 51 % of the dose of heme injected.
On to `C=CC1=C(C)c2cc3[n-]c(cc4[n-]c(cc5nc(cc1n2)C(C)=C5C=C)c(C)c4CCC(=O)O)c(CCC(=O)O)c3C.[Fe+2]` [heme, ferroprotoporphyrin IX], for which the “total amount of exogenous heme recovered in the bile as both heme and bilirubin” value in data set [3] (heme alone, 6.1 µmol/kg b.w. i.v. bolus, average) is recorded as 32 % of the dose administered. Moreover, the “total amount of heme excreted in the bile” value in data set [3] (heme alone, 6.1 µmol/kg b.w. i.v. bolus, average of 5 rats) is recorded as 14 % of the dose injected.
